From patent US8552208B2, “Analogs of tetramic acid” (University of Tennesseee Research Foundation, priority 2007, dated 2013)
In brackets after ≈: the same amount, converted by molar mass. Where two headings read alike, the source gives them in different places.

Assays:
[1] = tested on: Propionibacterium acnes ATCC 6919; experiment: Antibacterial activity assay (MIC, broth dilution); type: cell-based; settings: Cutibacterium acnes, ATCC6919; Propionibacterium acnes ATCC 6919; read-out: MIC, PA
[2] = tested on: Enterococcus faecalis ATCC 33186; experiment: Antibacterial activity assay (MIC, broth dilution); type: cell-based; settings: ATCC33186; Enterococcus faecalis ATCC 33186; read-out: MIC, EF
[3] = tested on: Bacillus anthracis Sterne 34F2; experiment: microbe, parasite or virus in culture; type: cell-based; settings: STERNE34F2, read-out: MIC, BA
[4] = tested on: Methicillin sensitive Staphylococcus aureus 8325 ATCC 35556; experiment: Antibacterial activity assay (MIC, broth dilution); type: cell-based; settings: ATCC 35556 / MSSA; Methicillin sensitive Staphylococcus aureus 8325 ATCC 35556; read-out: MIC, MSSA
[5] = tested on: Streptococcus pyogenes ATCC 700294; experiment: Antibacterial activity assay (MIC, broth dilution); type: cell-based; settings: ATCC700294; Streptococcus pyogenes ATCC 700294; read-out: MIC, SP
[6] = tested on: Bacillus subtilis ATCC 23857; experiment: Antibacterial activity assay (MIC, broth dilution); type: cell-based; settings: ATCC23857; Bacillus subtilis ATCC 23857; read-out: MIC, BS
[7] = tested on: Mycobacterium tuberculosis H37 Rv; experiment: Antibacterial activity assay (MIC, broth dilution); type: cell-based; settings: H37RV, 168 h; Mycobacterium tuberculosis H37 Rv; […]; read-out: MIC, TB
[8] = tested on: Methicillin Resistant Staphylococcus aureus ATCC 33591; experiment: Antibacterial activity assay (MIC, broth dilution); type: cell-based; settings: ATCC 33591 / MRSA, read-out: MIC, MRSA
[9] = tested on: Streptococcus pneumoniae DAW30EC; experiment: Antibacterial activity assay (MIC, broth dilution); type: cell-based; settings: Streptococcus pneumoniae DAW30EC; read-out: MIC, SPn
Cytotoxicity assay (MTT) = type: cell-based, monkey; settings: monkey, Vero cells, 72 hours, MTT, read-out: IC50 (Cytotoxicity): Concentration which reduces viability of Vero kidney cells by 50%
Experimental: (§1) Cytotoxicity assays of drugs of Formula I of Example 3 and of Formula II of Example 5 were performed using the Vero monkey kidney cell line (ATCC, CCL-81). Vero cells were grown in tissue culture flasks in Dulbecco's Modified Eagle's Medium (ATCC) supplemented with 10% fetal bovine serum and maintained in a humidified incubator (37° C., 5% CO2). Cells were removed with a cell scraper, collected by centrifugation and then suspended in fresh medium at ˜10^6 cells/mL. The cell suspensions were dispensed into 96-well microtiter plates (100 μl/well) and incubated for 18 hours at 37° C. before being used for cytotoxicity assays. Test compounds were subsequently added at concentrations ranging from 400-0.024 μg/mL and 0.1% vol/vol of Triton-X 100, which causes 100% death of cells, was included as a control. After incubating cells and compounds for 72 hours in humid air (37° C., 5% CO2) the cytopathic effects of compounds were determined using the MTT Cell Proliferation Assay (ATCC, Cat No. 30-1010K). The MTT solution reagent (10 μl) was added to each well and plates incubated at 37° C. until sufficient purple color development occurred in cells (3 hours). After detergent cell lysis, the purple formazan product was measured at 570 nm in a Synergy HT Biotek microplate reader. IC50 data was obtained from dose response curves plotted from percentage activity versus log10 concentration using Graphpad prism 5.

[10] = tested on: Vero monkey kidney cell line (ATCC, CCL-81); experiment: Cytotoxicity assay (MTT); type: cell-based
Experimental: as §1

[11] = Vero monkey kidney cells (ATCC CCL-81)
[12] = IC50 divided by MIC against S. aureus 8325

Row | Structure (SMILES) | MIC [1] | MIC [2] | MIC [3] | MIC [4] | MIC [5] | MIC [6] | MIC [7] | MIC [8] | MIC [9] | IC50 at 72 h (Cytotoxicity assay (MTT); [11]) | IC50/MIC = Selectivity (therapeutic) index [10, 12] | IC50 at 72 h (Cytotoxicity assay (MTT)) | IC50/MIC = Selectivity (therapeutic) index ([10]; IC50 divided by MIC against E. faecalis (12p only))
1 | CC(C)C[C@@H]1C(O)=C(C#N)C(=O)N1Cc1ccc(F)cc1 [Compound 12f, (R)-1-(4-fluorobenzyl)-4-hydroxy-5-isobutyl-2-oxo-2,5-dihydro-1H-pyrrole-3-carbonitrile] | > 200 µg/mL | > 200 µg/mL | > 200 µg/mL | > 200 µg/mL | > 200 µg/mL | > 200 µg/mL | > 200 µg/mL | > 200 µg/mL | > 200 µg/mL |  |  |  | 
2 | COc1cccc(CN2C(=O)C(C#N)=C(O)[C@@H]2CC(C)C)c1 [Compound 12d, (S)-4-hydroxy-5-isobutyl-1-(3-methoxybenzyl)-2-oxo-2,5-dihydro-1H-pyrrole-3-carbonitrile] | > 200 µg/mL | > 200 µg/mL | > 200 µg/mL | > 200 µg/mL | > 200 µg/mL | > 200 µg/mL | > 200 µg/mL | > 200 µg/mL | > 200 µg/mL |  |  |  | 
3 | C/C(O)=C1\C(=O)[C@@H](Cc2ccccc2)N(Cc2ccccc2)C1=O [Compound 13g, (R,Z)-1,5-dibenzyl-3-(1-hydroxyethylidene)pyrrolidine-2,4-dione] | 25 µg/mL (≈ 77.8 µM) | 100 µg/mL (≈ 311 µM) | 25 µg/mL (≈ 77.8 µM) | 25 µg/mL (≈ 77.8 µM) | 200 µg/mL (≈ 622 µM) | 25 µg/mL (≈ 77.8 µM) | > 200 µg/mL | 25 µg/mL (≈ 77.8 µM) | 50 µg/mL (≈ 156 µM) | 80.6 µg/mL | 3.2 |  | 
4 | N#CC1=C(O)[C@@H](Cc2ccccc2)N(Cc2ccccc2)C1=O [Compound 12g, (R)-1,5-dibenzyl-4-hydroxy-2-oxo-2,5-dihydro-1H-pyrrole-3-carbonitrile] | > 200 µg/mL | > 200 µg/mL | > 200 µg/mL | > 200 µg/mL | > 200 µg/mL | > 200 µg/mL | > 200 µg/mL | > 200 µg/mL | > 200 µg/mL |  |  |  | 
5 | CCC(C)[C@H]1C(O)=C(C#N)C(=O)N1Cc1ccco1 (stereo partly drawn) [Compound 12p, (S)-5-sec-butyl-1-(furan-2-ylmethyl)-4-hydroxy-2-oxo-2,5-dihydro-1H-pyrrole-3-carbonitrile] | 12.5 µg/mL (≈ 48 µM) | 3.12 µg/mL (≈ 12 µM) | 3.12 µg/mL (≈ 12 µM) | > 200 µg/mL | > 200 µg/mL | 25 µg/mL (≈ 96 µM) | > 200 µg/mL | > 200 µg/mL | 50 µg/mL (≈ 192 µM) |  |  | 6400 µg/mL | 2049.7
6 | C/C(O)=C1\C(=O)[C@@H](CC(C)C)N(Cc2ccc(F)cc2)C1=O [Compound 13f, (R,Z)-1-(4-fluorobenzyl)-3-(1-hydroxyethylidene)-5-isobutylpyrrolidine-2,4-dione] | 12.5 µg/mL (≈ 40.9 µM) | 50 µg/mL (≈ 164 µM) | 12.5 µg/mL (≈ 40.9 µM) | 12.5 µg/mL (≈ 40.9 µM) | 100 µg/mL (≈ 327 µM) | 12.5 µg/mL (≈ 40.9 µM) | 100 µg/mL (≈ 327 µM) | 12.5 µg/mL (≈ 40.9 µM) | 25 µg/mL (≈ 81.9 µM) |  | 2.8 | 35.3 µg/mL | 
7 | CC(C)C[C@H]1C(O)=C(C#N)C(=O)N1Cc1ccc(F)cc1 [Compound 12e, (S)-1-(4-fluorobenzyl)-4-hydroxy-5-isobutyl-2-oxo-2,5-dihydro-1H-pyrrole-3-carbonitrile] | > 200 µg/mL | > 200 µg/mL | > 200 µg/mL | > 200 µg/mL | > 200 µg/mL | > 200 µg/mL | > 200 µg/mL | > 200 µg/mL | > 200 µg/mL |  |  |  | 
8 | CCC(C)[C@H]1C(O)=C(C#N)C(=O)N1Cc1ccccc1 (stereo partly drawn) [Compound 12a, (S)-1-benzyl-5-sec-butyl-4-hydroxy-2-oxo-2,5-dihydro-1H-pyrrole-3-carbonitrile] | > 200 µg/mL | > 200 µg/mL | > 200 µg/mL | > 200 µg/mL | > 200 µg/mL | > 200 µg/mL | > 200 µg/mL | > 200 µg/mL | > 200 µg/mL |  |  |  | 
9 | CCC(C)[C@H]1C(=O)/C(=C(\C)O)C(=O)N1Cc1ccccc1 (stereo partly drawn) [Compound 13a, (S,Z)-1-benzyl-5-sec-butyl-3-(1-hydroxyethylidene)pyrrolidine-2,4-dione] | 6.25 µg/mL (≈ 21.7 µM) | 6.25 µg/mL (≈ 21.7 µM) | 3.12 µg/mL (≈ 10.9 µM) | 6.25 µg/mL (≈ 21.7 µM) | > 200 µg/mL | 25 µg/mL (≈ 87 µM) | 50 µg/mL (≈ 174 µM) | 6.25 µg/mL (≈ 21.7 µM) | 50 µg/mL (≈ 174 µM) |  | 4.2 | 26.3 µg/mL | 
10 | CCCCCCCCCCN1C(=O)C(C#N)=C(O)[C@@H]1CC(C)C [Compound 12b, (S)-1-decyl-4-hydroxy-5-isobutyl-2-oxo-2,5-dihydro-1H-pyrrole-3-carbonitrile] | 12.5 µg/mL (≈ 39 µM) | 25 µg/mL (≈ 78 µM) | 25 µg/mL (≈ 78 µM) | 25 µg/mL (≈ 78 µM) | > 200 µg/mL | 50 µg/mL (≈ 156 µM) | 3.12 µg/mL (≈ 9.74 µM) | 25 µg/mL (≈ 78 µM) | 100 µg/mL (≈ 312 µM) |  | 6.1 | 152 µg/mL | 
11 | CCN1C(=O)/C(=C(/C)O)C(=O)[C@@H]1Cc1ccccc1 [Compound 13h, (S,Z)-5-benzyl-1-ethyl-3-(1-hydroxyethylidene)pyrrolidine-2,4-dione] | 100 µg/mL (≈ 386 µM) | > 200 µg/mL | 50 µg/mL (≈ 193 µM) | 200 µg/mL (≈ 771 µM) | > 200 µg/mL | > 200 µg/mL | > 200 µg/mL | > 200 µg/mL | > 200 µg/mL |  |  |  | 
12 | CCCCCCCCCCN1C(=O)/C(=C(/C)O)C(=O)[C@H]1CC(C)C [Compound 13o, (R,Z)-1-decyl-3-(1-hydroxyethylidene)-5-isobutylpyrrolidine-2,4-dione] | 0.8 µg/mL (≈ 2.37 µM) | 1.6 µg/mL (≈ 4.74 µM) | 0.8 µg/mL (≈ 2.37 µM) | 0.4 µg/mL (≈ 1.19 µM) | 50 µg/mL (≈ 148 µM) | 0.8 µg/mL (≈ 2.37 µM) | 25 µg/mL (≈ 74.1 µM) | 0.8 µg/mL (≈ 2.37 µM) | 6.25 µg/mL (≈ 18.5 µM) | 6.3 µg/mL | 15.8 |  | 
13 | C/C(O)=C1\C(=O)[C@H](Cc2ccccc2)N(Cc2ccccc2)C1=O [Compound 13c, (S,Z)-1,5-dibenzyl-3-(1-hydroxyethylidene)pyrrolidine-2,4-dione] | 12.5 µg/mL (≈ 38.9 µM) | 100 µg/mL (≈ 311 µM) | 25 µg/mL (≈ 77.8 µM) | 12.5 µg/mL (≈ 38.9 µM) | > 200 µg/mL | 25 µg/mL (≈ 77.8 µM) | > 200 µg/mL | 25 µg/mL (≈ 77.8 µM) | 100 µg/mL (≈ 311 µM) | 75.7 µg/mL | 6.1 |  | 
14 | COc1cccc(CN2C(=O)/C(=C(/C)O)C(=O)[C@@H]2CC(C)C)c1 [Compound 13d, (S,Z)-3-(1-hydroxyethylidene)-5-isobutyl-1-(3-methoxybenzyl)pyrrolidine-2,4-dione] | 12.5 µg/mL (≈ 39.4 µM) | 100 µg/mL (≈ 315 µM) | 25 µg/mL (≈ 78.8 µM) | 12.5 µg/mL (≈ 39.4 µM) | 200 µg/mL (≈ 630 µM) | 25 µg/mL (≈ 78.8 µM) | 100 µg/mL (≈ 315 µM) | 25 µg/mL (≈ 78.8 µM) | 50 µg/mL (≈ 158 µM) |  | 3.2 | 40 µg/mL | 
15 | N#CC1=C(O)[C@H](Cc2ccccc2)N(Cc2ccccc2)C1=O [Compound 12c, (S)-1,5-dibenzyl-4-hydroxy-2-oxo-2,5-dihydro-1H-pyrrole-3-carbonitrile] | > 200 µg/mL | > 200 µg/mL | > 200 µg/mL | > 200 µg/mL | > 200 µg/mL | > 200 µg/mL | > 200 µg/mL | > 200 µg/mL | > 200 µg/mL |  |  |  | 
16 | C/C(O)=C1\C(=O)[C@H](CC(C)C)N(Cc2ccc(F)cc2)C1=O [Compound 13e, (S,Z)-1-(4-fluorobenzyl)-3-(1-hydroxyethylidene)-5-isobutylpyrrolidine-2,4-dione] | 6.25 µg/mL (≈ 20.5 µM) | 50 µg/mL (≈ 164 µM) | 12.5 µg/mL (≈ 40.9 µM) | 12.5 µg/mL (≈ 40.9 µM) | 100 µg/mL (≈ 327 µM) | 25 µg/mL (≈ 81.9 µM) | 100 µg/mL (≈ 327 µM) | 25 µg/mL (≈ 81.9 µM) | 50 µg/mL (≈ 164 µM) |  | 2.2 | 27.8 µg/mL | 
